Activity calls are given as the source filed them. No rule for the calls is given here.
Molecular target: RanGTP-importin-beta complex (human Ran / KPNB1)
Assay: Ran–importin-beta interaction inhibitors, confirmation, biochemical, FRET, CFP/YFP, cell-free homogeneous (AID 2823)
Settings: CFP-Ran/YFP-importin-beta FRET ratio

Structure (SMILES) | IC50
Cc1nc2ccccc2n1CC(=O)N1CC(=O)Nc2ccccc21 | > 50 µM (inactive)
O=c1[nH]c(-[n+]2ccc3ccccc3c2)c(/C=N/N=C(\[O-])c2ccccc2)s1 | > 50 µM (inactive)
N#Cc1c(N)n(CCNC(=O)c2ccc(Cl)cc2)c2nc3ccccc3nc12 | 7.21 µM
CCCOc1ccc(Cn2ccnc2)cc1[N+](=O)[O-] | > 50 µM (inactive)
C#CCOc1ccc(C2C3=C(CC(C)(C)CC3=O)N(CC(=O)O)C3=C2C(=O)CC(C)(C)C3)cc1OC | 32 µM
CCCOC(=S)NC(=O)c1sc2ccccc2c1Cl | > 50 µM (inactive)
O=C(Cn1c2ccccc2c(=O)c2ccccc21)Nc1ccccc1F | 5.51 µM
CCOC(=O)CNc1ncc([N+](=O)[O-])cc1C#N | > 50 µM (inactive)
COc1ccc(C(=O)C[n+]2ccc(N)c(C)c2C)cc1 | > 50 µM (inactive)
COc1cc(NC(=O)Cn2ncc(Cl)c(Cl)c2=O)c(C)cc1[N+](=O)[O-] | > 50 µM (inactive)
CC(C)(C)n1cnc2cc(NCc3ccc(Br)cc3)ccc21 | > 50 µM (inactive)
CCS(=O)(=O)c1nc(S(=O)(=O)c2ccc(C)cc2)c(NCc2ccccn2)s1 | > 50 µM (inactive)
Cc1c(/C=N\NC(=O)C2COc3ccccc3O2)c2ccccc2n1C (stereo not drawn) | > 50 µM (inactive)
O=C(Cn1nnc(-c2ccncc2)n1)NCCc1ccccc1 | > 50 µM (inactive)
CC1(C)CC(=O)C=C(Nc2ccc(S(N)(=O)=O)cc2)C1 | > 50 µM (inactive)
C=CCn1c(N)c(C(=O)OCCC)c2nc3ccccc3nc21 | 26 µM
C/C(N)=C(/C#N)C(=O)COc1ncnc2ccccc12 | > 50 µM (inactive)
COc1ccc(C(=O)/C=C/Nc2cccc(C)n2)cc1OC | 22.8 µM
CC/C(=N\NC(=O)c1cc(C2CC2)[nH]n1)c1ccccc1 | > 50 µM (inactive)
O=c1cc(CN2CCN(S(=O)(=O)c3ccc4c(c3)OCCO4)CC2)c2ccc(O)cc2o1 | 10.9 µM
CCn1c(SCc2nc(-c3ccccc3)no2)nnc1-c1cccs1 | > 50 µM (inactive)
CN1CC2=CC(O)CC3Oc4c(O)ccc(c4[C@]23C)C1 (stereo partly drawn) | > 50 µM (inactive)
N#CCCN(C(=O)Nc1ccc(Cl)cc1)c1ccccc1 | > 50 µM (inactive)
Cc1ccc(C2NC(=O)c3c(sc(C)c3C)N2)c(O)c1 (stereo not drawn) | > 50 µM (inactive)
O=C(O)c1cn(Cc2cccnc2)c(=O)c2ccccc12 | > 50 µM (inactive)
Cc1ccc(OCc2nnc(SCC(=O)CC(=O)Nc3ccccc3)o2)cc1 | > 50 µM (inactive)

Structure (SMILES) | IC50
CCCCc1cc(=O)oc2c(CN3CCCC3)c(O)c(Cl)cc12 | 23 µM
COC(=O)Cc1c(C)c2ccc(O)c(CNCc3ccc(OC)c(OC)c3)c2oc1=O | 6.13 µM
COc1ccc(OC)c(S(=O)(=O)n2ccnc2C)c1 | > 50 µM (inactive)
CC#CC(=O)N1CCC(C(=O)Nc2ccc(Oc3ccccc3)nc2)CC1 | > 50 µM (inactive)
Cc1cc(C)c[n+](-c2nc3ccccc3nc2[N-]S(=O)(=O)c2ccc(Br)s2)c1 | 3.68 µM
Cc1ccc(Nc2nc(N)nc(CC#N)n2)cc1 | > 50 µM (inactive)
NC(N)=N/N=C/c1ccc(N(c2ccccc2)c2ccccc2)cc1 | 16.8 µM
Fc1ccc(N/N=C/C=C/c2ccccc2)c(F)c1 | > 50 µM (inactive)
Nc1c(C(=O)Nc2ccccc2)c2nc3ccccc3nc2n1CCCN1CCOCC1 | 41.7 µM
N#C/C(=C\c1ccc(-c2ccc(F)cc2)o1)C(=O)Nc1nc(-c2cccs2)cs1 | > 50 µM (inactive)
Cc1ccc(S(=O)(=O)CC(=O)N(CCCN(C)C)c2nc3ccc(C)cc3s2)cc1 | > 50 µM (inactive)
COC(=O)c1cc(C(=O)OC)[nH]n1 | > 50 µM (inactive)
Cc1ccc(S(=O)(=O)c2cc3c(=O)n4cccc(C)c4nc3n(C3CCCCC3)c2=N)cc1 | 1.2 µM
COC(=O)Cn1c(=O)c2c(nc3n2CCCN3CCc2ccccc2)n(C)c1=O | > 50 µM (inactive)
CC1=C(C(=O)OCC2CCCO2)C(c2ccccc2OC(C)C)C2=C(CC(c3ccco3)CC2=O)N1 (stereo not drawn) | 8.41 µM
C=CCn1c(O)c(C(C)=NCCc2ccccc2)c(=O)[nH]c1=O | > 50 µM (inactive)
COc1ccccc1NC(=O)CN1CCN(CC(=O)Nc2ccc(C)c(F)c2)CC1 | > 50 µM (inactive)
Cc1cnc(C(=O)Nc2ccc(S(=O)(=O)N(C(C)C)C(C)C)cc2)cn1 | > 50 µM (inactive)
COc1ccc(Br)cc1/C=C/C(=O)NC(=S)Nc1ccc(CN2CCOCC2)cc1 | > 50 µM (inactive)
COc1ccc(CCNC(=O)c2cc3c(=O)n4ccccc4nc3n(C3CCCCC3)c2=N)cc1OC | 23.2 µM
COCCNC(=O)/C(C#N)=C/c1c(N2CCN(c3ccc(OC)cc3)CC2)nc2c(C)cccn2c1=O | 39.2 µM
CCOc1ccc(Nc2c3ccccc3nc3ccccc23)cc1 | > 50 µM (inactive)
Cc1ccc(-c2c(C(=O)N/N=C/c3ccc4c(c3)OCO4)nnn2-c2nonc2N)cc1 | > 50 µM (inactive)
CCCC(C)c1nnc(NC(=O)C2CC(=O)N(c3ccc(OCC)cc3)C2)s1 (stereo not drawn) | > 50 µM (inactive)
CC(O)CNc1nc2ccccc2n1CC(=O)NC12CC3CC(CC(C3)C1)C2 (stereo not drawn) | > 50 µM (inactive)
Cc1cccc(C)c1N1CCN(S(=O)(=O)c2ccc(F)cc2)CC1 | > 50 µM (inactive)

Structure (SMILES) | IC50
CCCOC(=O)CSC1=C(C#N)C(c2ccccc2OC)C(C#N)C(=O)N1 (stereo not drawn) | > 50 µM (inactive)
NNc1nc2sc3c(c2c(=O)n1C1CCCCC1)CCN(Cc1ccccc1)C3 | 2.69 µM
COC(=O)c1ccc2c(=O)n(CCN3CCOCC3)c(SCC(=O)C(C)(C)C)nc2c1 | > 50 µM (inactive)
O=C(O)c1ccccc1P(=O)(c1ccccc1)c1ccccc1 | > 50 µM (inactive)
O=C(O)COc1ccc(F)cc1Br | > 50 µM (inactive)
COc1cc([C@@H]2[C@H]3CN(C)CC=C3C(C#N)=C(N)C2(C#N)C#N)cc2c1OCO2 | 21 µM
CC(C)NC(=O)NC(=O)COC(=O)c1ccccc1O | > 50 µM (inactive)
CC(=O)N1c2ccc(S(=O)(=O)N3CCC(C(=O)Nc4cccc(Cl)c4)CC3)cc2CC1C (stereo not drawn) | > 50 µM (inactive)
Cc1cccc2cc(C#N)c(NCCCn3ccnc3)nc12 | 19.2 µM
Cc1ccccc1-n1c(=O)cc(N2CCC3(CC2)OCCO3)[nH]c1=O | > 50 µM (inactive)
CCc1ccc(N2C(=O)NC(=O)/C(=C\c3cc(C)n(-c4cc(C(=O)O)cc(C(=O)O)c4)c3C)C2=O)cc1 | > 50 µM (inactive)
CCSc1nnc(-c2cc(Br)ccc2N=Cc2c(C)[nH]n(-c3ccccc3)c2=O)c(=O)[nH]1 | > 50 µM (inactive)
CCOC(=O)c1c(NC(=O)CSc2nnc3c(n2)[nH]c2ccccc23)sc2c1CCN(C)C2 | > 50 µM (inactive)
Cn1nnnc1SCC(=O)Nc1nn(-c2ccccc2)nc1C(N)=O | > 50 µM (inactive)
COc1ccc2cc(C#N)c(N3CCN(C(=O)c4ccccc4C)CC3)nc2c1 | > 50 µM (inactive)
Oc1ccc(Br)cc1/C=N/n1c(-c2ccccc2)n[nH]c1=S | > 50 µM (inactive)
COc1cc2cc(C(N)=O)c(N)nc2cc1OC | 10.3 µM
O=C(/C=C/c1ccccc1[N+](=O)[O-])N1CCN(c2ccc(F)cc2)CC1 | > 50 µM (inactive)
O=C(O)Cn1cc(/C=C2\SC(=O)N(c3ccccc3)C2=O)c2ccccc21 | 39.4 µM
COc1cc2c(cc1OC)CN(Cc1cc(=O)oc3c(C)c(C)ccc13)CC2 | > 50 µM (inactive)
Cc1c(CC(=O)NCC(=O)N[C@H](Cc2ccccc2)C(=O)O)c(=O)oc2cc(O)ccc12 | 46.2 µM
Clc1ccc(/C=C/c2ncc3ccccn23)cc1 | 12.5 µM
CCC(=O)Nc1ccc(N/C(N)=N/c2nc(C)cc(C)n2)cc1 | > 50 µM (inactive)
CC1CN(Cc2cc(=O)oc3cc(O)ccc23)CC(C)O1 (stereo not drawn) | 19 µM
CCOc1ccc(OCc2ccc(C(=O)N(CC)CC)cc2)cc1 | > 50 µM (inactive)
S=c1[nH]c2ccc3ccccc3c2[nH]1 | > 50 µM (inactive)

Structure (SMILES) | IC50
CN=C(Nc1cc(C)nn1CCC#N)c1ccccc1 | > 50 µM (inactive)
N=C(N)SCc1nc2ccccc2c(=O)n1-c1ccccc1Cl | > 50 µM (inactive)
COc1ccc(-n2c(N)c(C(=O)NCc3ccco3)c3nc4ccccc4nc32)c(OC)c1 | 21.9 µM
COCCNC(=O)/C(C#N)=C/c1ccc(-c2ccc(S(=O)(=O)N3CCOCC3)cc2)o1 | > 50 µM (inactive)
CC1(C)CC(=O)C/C(=N\NC(=O)C2CC23CCC3)C1 (stereo not drawn) | > 50 µM (inactive)
O=c1[nH]c(Nc2ccccc2Cl)cc2ccccc12 | > 50 µM (inactive)
COc1cc(C(=O)NCCNc2nc3cc(C)ccc3cc2C#N)cc(OC)c1OC | 34.6 µM
Cc1c(OCC(=O)NCc2ccncc2)ccc2c3c(c(=O)oc12)CCC3 | > 50 µM (inactive)
COc1ccc(CCNc2oc(-c3ccco3)nc2C#N)cc1 | > 50 µM (inactive)
COc1ccccc1C#Cc1ccc2c(=O)c3ccccc3n(C)c2c1 | 0.698 µM
N#C/C(=C/c1ccc(N2CCCCC2)o1)C(=O)NCCc1c[nH]c2ccccc12 | 0.936 µM
COc1ccc(C(=O)Cc2cnn(-c3ccccc3)c2)c(O)c1 | > 50 µM (inactive)
CCOc1ccc(-n2c(N)c(C(=O)NCc3ccco3)c3nc4ccccc4nc32)cc1 | 25 µM
Cc1cccc(NS(=O)(=O)c2ccc(C(=O)N3CCCCCC3)cc2)c1C | > 50 µM (inactive)
COc1ccc(CNC(=O)C2CC(=O)N(C3CCCCC3)C2)cc1 (stereo not drawn) | > 50 µM (inactive)
O=C(c1cc2ccccc2oc1=O)N1CCN(CCc2ccccc2)CC1 | 6.7 µM
CN(C)/C=C/C(=O)/C=C/c1ccc(Cl)cc1 | > 50 µM (inactive)
CCCc1c2ccccc2nc2ccccc12 | 8.26 µM
CCOC(=O)/C(=N\Nc1ccc(C(C)=O)cc1)c1csc(Nc2ccccc2)n1 | > 50 µM (inactive)
COc1ccc(-c2nc(/C=C3\C(C)=Nc4ccccc43)c(O)o2)cc1 | > 50 µM (inactive)
Cc1ccc(NC(=S)NCCN2CCOCC2)cc1 | > 50 µM (inactive)
N#Cc1c(N)nc2c(c1-c1ccccc1)CCC2 | 14.3 µM
Cc1ccc(OCC(=O)NNc2c3ccccc3nc3ccccc23)cc1 | > 50 µM (inactive)
CCn1c(=O)cc(N2CCOCC2)[nH]c1=O | > 50 µM (inactive)
Cc1nn(C)c(Oc2ccc(Cl)cc2)c1C(=O)O | > 50 µM (inactive)

From PubChem BioAssay AID2823 (Broad Institute, 2010)
